Series [1] has as its system HMEC, PHMLEB, PHMLER cells. The experiment in a line: Cellular viability. It is filed as cell-based, human. Particulars: 24 h, CellTiter-Glo. In general terms: Cellular ATP, detected with luciferase, serves as a proxy for viable cell number.
In another series the test system is ∼170 kinases. The experiment in a line: KiNativ kinase profiling, whole panel, PC3 cell lysate. Format: binding, Homo sapiens. Particulars: 20 μM.
In the next series the target is p97 ATPase (Homo sapiens, UniProt P55072). The experiment in a line: p97 ATPase assay. It is filed as biochemical. Particulars: for IC50: IC50 ATPase, triplicate, mean ±SD.
The nature of the next series: Hepatic toxicity. Format: cell-based. Particulars: human, Fa2N-4 immortalized human hepatocytes.
The next series can be described thus: Aqueous solubility. Format: physicochemical. Particulars: aqueous buffer.
The subject of another series is SW403. The experiment in a line: Cytotoxicity / antiproliferative activity. Format: cell-based. Particulars: Homo sapiens.
Series [2] in a line: Plasma stability. It is filed as in vitro ADME. Particulars: mouse.
The nature of series [3]: Plasma stability. It is filed as in vitro ADME. Particulars: human.
The next series deals with HCT15. As to the kind of experiment: Cytotoxicity / antiproliferative activity. Format: cell-based. Particulars: Homo sapiens.
Series [4] in a line: Plasma protein binding. Format: in vitro ADME. Particulars: human.
The next series has as its system NCI 60 cancer cell lines. The experiment in a line: NCI 60-cell-line screen. Format: cell-based. Particulars: 48 h; for Mean GP: mean of 60 NCI cell lines ±SD.
The next series can be described thus: PAMPA. It is filed as in vitro ADME. Particulars: acceptor pH 7.4; for Papp: PAMPA; for PAMPA Pe: in the presence of 20% CH3CN. (The PAMPA barrier holds no transporters, so it reflects passive diffusion.)
Series [5] in a line: Hepatic microsome stability. It is filed as in vitro ADME. Particulars: human, liver microsomes. Background: Liver microsomes are vesicles of endoplasmic reticulum, rich in cytochrome P450 enzymes.
The next series concerns ubiquitin conjugates. The experiment in a line: Ubiquitin conjugate accumulation immunoblot, SW403 cells. Particulars: 5–10 μM; nuclear plus membrane and cytosolic compartments.
For series [6], the system named is poly(ADP-ribose) polymerase (PARP). The experiment in a line: PARP cleavage immunoblot, SW403 cells. It is filed as cell-based. Particulars: 2 h.
The nature of series [7]: Plasma protein binding. Particulars: mouse. It is filed as in vitro ADME.
The test system of a further series is caspases 3 and 7. The experiment in a line: Caspase 3 and 7 activity in colon cancer cell lines. It is filed as cell-based. Particulars: multiple colon cancer cell lines; dose- and time-dependent.
Another series deals with JAK1 domain1 (Homo sapiens, UniProt P23458). As to the kind of experiment: KiNativ profiling. It is filed as binding. Particulars: 20 μM, Other.
Series [8] relates to ODD-Luc (p97-independent proteasome substrate). As to the kind of experiment: ODD-Luc reporter degradation assay, dual reporter HeLa cell line. It is filed as cell-based. Particulars: Homo sapiens, read-out: IC50 ODD-Luc.
The test system of another series is LC3-II. The experiment in a line: Autophagy reporter LC3-II immunoblot. Particulars: for accumulation of lipidated LC3-II: HEK293, 5 h.
The target of another series is PIP5K3 (Homo sapiens, UniProt Q9Y2I7). As to the kind of experiment: KiNativ profiling. It is filed as binding. Particulars: 20 μM, ATP.
A further series concerns the target 5-HT5a (Homo sapiens, UniProt P47898). As to the kind of experiment: CNS panel binding. Particulars: 5HT5a receptor.
Series [9] in a line: Hepatic microsome stability. Format: in vitro ADME. Particulars: mouse, liver microsomes.
Setting [10] is: SW-403, 24 h, read-out: Cytotoxicity GI50 SW403 24 h.
[11] abbreviates: SW-403, 72 h, read-out: Cytotoxicity GI50 SW403 72 h.
Setting [12] is: HCT-15, 24 h, read-out: Cytotoxicity GI50 HCT15 24 h.
Where [13] appears, read: HCT-15, 72 h, read-out: Cytotoxicity GI50 HCT15 72 h.

Values after ≈ are worked out from the molar mass of the structure shown. Values joined by “and” are separate entries in the source; they are usually repeats but may differ in a detail not shown here. Equal values may be shown once. Read-outs that look alike come from different tables or passages of the source. Some results are limits rather than exact numbers.

Sequence of p97 ATPase (P55072 whole entry): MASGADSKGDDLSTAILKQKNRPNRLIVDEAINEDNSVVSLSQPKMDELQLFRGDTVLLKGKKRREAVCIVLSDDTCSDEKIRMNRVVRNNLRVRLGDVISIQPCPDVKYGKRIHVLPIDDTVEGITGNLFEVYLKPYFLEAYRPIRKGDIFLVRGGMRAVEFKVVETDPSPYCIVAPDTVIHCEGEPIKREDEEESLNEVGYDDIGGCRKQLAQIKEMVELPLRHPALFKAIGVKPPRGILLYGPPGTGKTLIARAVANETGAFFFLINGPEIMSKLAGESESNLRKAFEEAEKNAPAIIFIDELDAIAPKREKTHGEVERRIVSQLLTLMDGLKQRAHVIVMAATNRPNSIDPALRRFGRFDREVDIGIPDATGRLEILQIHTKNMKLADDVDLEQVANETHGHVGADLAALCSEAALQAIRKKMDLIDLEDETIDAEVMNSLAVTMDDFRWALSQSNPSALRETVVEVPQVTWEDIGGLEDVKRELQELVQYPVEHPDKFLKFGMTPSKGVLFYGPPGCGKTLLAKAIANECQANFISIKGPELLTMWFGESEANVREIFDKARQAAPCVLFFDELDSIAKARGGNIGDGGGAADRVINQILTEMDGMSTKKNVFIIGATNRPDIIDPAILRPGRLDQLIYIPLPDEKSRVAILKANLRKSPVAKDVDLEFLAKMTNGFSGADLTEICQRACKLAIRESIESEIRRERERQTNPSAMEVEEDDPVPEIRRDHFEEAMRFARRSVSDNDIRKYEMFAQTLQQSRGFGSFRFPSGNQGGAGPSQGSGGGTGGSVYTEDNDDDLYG
Sequence of JAK1 domain1 (P23458 whole entry, the tested form may be a part): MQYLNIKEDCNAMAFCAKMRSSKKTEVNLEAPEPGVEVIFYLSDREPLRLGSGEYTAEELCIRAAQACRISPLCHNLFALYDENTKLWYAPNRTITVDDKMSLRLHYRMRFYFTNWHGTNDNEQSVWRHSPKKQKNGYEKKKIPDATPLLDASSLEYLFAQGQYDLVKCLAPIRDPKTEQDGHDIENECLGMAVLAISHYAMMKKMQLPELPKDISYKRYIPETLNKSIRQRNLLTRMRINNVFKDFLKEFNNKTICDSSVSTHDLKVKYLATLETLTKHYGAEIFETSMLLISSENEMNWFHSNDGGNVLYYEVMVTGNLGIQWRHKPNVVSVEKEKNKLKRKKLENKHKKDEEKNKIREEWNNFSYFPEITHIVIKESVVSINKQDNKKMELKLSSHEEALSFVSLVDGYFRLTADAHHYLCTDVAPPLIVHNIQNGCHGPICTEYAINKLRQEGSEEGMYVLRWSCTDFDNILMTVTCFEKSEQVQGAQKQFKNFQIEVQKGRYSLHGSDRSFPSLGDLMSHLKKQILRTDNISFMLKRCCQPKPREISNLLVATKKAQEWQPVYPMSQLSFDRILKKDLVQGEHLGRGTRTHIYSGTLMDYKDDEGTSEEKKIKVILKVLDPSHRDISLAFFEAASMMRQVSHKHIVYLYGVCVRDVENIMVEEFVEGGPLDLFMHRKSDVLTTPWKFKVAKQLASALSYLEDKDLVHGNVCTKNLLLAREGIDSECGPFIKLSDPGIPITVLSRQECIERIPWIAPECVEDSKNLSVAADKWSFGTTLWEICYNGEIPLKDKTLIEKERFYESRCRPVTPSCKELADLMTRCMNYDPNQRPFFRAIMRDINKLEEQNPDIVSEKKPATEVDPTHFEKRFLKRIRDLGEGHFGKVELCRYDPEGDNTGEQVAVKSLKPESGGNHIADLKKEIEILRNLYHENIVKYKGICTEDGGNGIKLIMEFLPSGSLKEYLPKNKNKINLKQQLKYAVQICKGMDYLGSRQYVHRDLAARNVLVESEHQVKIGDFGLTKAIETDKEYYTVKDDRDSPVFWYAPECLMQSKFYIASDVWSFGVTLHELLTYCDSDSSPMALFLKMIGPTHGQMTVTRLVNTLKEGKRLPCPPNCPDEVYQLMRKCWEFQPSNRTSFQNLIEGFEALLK
Sequence of 5-HT5a (P47898 whole entry, species assumed): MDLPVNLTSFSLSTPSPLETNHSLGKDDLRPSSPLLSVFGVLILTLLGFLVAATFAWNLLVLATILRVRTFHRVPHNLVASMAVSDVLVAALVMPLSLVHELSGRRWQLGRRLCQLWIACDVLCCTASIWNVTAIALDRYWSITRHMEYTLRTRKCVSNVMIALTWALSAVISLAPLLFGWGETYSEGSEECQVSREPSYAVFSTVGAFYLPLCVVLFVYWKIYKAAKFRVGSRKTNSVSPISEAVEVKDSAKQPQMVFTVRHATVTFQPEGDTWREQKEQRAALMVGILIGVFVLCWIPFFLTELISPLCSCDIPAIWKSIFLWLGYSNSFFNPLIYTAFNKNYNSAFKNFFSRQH
Sequence of PIP5K3 (Q9Y2I7 whole entry): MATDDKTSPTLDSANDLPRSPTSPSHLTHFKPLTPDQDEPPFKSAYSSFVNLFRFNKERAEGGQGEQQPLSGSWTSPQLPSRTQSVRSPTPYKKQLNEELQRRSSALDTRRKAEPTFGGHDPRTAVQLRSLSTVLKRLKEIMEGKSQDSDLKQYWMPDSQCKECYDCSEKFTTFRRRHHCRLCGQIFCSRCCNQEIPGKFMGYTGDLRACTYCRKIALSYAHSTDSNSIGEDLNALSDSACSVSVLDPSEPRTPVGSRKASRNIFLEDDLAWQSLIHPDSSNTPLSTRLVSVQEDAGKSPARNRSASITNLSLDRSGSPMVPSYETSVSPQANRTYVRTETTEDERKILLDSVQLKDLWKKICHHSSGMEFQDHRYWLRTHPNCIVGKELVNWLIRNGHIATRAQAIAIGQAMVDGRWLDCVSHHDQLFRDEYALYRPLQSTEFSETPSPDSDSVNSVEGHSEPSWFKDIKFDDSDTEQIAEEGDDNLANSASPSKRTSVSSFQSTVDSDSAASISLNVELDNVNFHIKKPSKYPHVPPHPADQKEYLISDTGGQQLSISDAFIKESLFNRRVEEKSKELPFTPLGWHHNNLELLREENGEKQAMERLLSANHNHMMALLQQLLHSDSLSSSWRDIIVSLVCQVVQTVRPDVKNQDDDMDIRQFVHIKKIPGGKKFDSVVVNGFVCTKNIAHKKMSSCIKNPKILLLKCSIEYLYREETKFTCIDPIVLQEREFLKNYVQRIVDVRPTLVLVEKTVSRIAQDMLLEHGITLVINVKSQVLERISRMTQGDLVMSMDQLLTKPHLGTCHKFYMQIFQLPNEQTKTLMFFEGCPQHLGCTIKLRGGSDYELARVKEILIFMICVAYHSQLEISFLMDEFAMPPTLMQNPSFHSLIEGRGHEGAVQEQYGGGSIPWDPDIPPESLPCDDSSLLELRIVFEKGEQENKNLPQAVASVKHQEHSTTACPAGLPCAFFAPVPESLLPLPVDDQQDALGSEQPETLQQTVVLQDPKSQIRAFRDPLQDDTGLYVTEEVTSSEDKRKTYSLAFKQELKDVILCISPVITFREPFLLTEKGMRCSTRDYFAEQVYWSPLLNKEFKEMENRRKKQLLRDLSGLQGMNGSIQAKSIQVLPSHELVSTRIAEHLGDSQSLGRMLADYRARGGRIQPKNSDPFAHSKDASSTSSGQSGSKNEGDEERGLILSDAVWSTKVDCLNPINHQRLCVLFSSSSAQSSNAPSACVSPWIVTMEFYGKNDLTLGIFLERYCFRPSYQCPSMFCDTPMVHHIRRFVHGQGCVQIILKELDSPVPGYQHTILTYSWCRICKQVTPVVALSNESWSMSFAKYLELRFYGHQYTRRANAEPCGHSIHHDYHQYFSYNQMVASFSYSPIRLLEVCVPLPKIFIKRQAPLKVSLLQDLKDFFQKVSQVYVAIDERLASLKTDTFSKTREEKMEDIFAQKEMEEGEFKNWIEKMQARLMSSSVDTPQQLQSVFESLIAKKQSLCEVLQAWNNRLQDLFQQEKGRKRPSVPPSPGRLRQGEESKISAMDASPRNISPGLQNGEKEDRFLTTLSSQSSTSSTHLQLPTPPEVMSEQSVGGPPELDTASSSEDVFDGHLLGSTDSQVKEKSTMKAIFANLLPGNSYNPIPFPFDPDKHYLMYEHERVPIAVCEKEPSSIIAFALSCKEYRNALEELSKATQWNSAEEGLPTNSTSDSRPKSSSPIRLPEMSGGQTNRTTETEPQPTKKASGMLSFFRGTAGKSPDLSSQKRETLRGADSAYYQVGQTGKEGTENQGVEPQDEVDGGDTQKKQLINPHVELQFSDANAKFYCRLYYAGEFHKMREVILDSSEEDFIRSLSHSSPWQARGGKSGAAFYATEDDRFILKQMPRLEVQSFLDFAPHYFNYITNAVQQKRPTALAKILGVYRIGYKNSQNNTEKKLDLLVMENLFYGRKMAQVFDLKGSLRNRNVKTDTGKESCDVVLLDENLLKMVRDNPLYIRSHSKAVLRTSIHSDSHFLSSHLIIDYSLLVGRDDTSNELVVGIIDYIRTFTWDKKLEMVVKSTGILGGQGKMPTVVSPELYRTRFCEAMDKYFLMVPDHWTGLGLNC

`CO/C1=C\C(C)=C\[C@@H](C)[C@@H](O)[C@@H](C)C/C(C)=C/C=C/[C@H](OC)[C@@H]([C@@H](C)[C@@H](O)[C@H](C)[C@@]2(O)C[C@@H](O)[C@H](C)[C@@H](C(C)C)O2)OC1=O` [bafilomycin, reference compound]: the “potency on normal vs immortalized and tumorigenic cell lines” value in series [1] is “equal potency”.
As for `CCCCNc1ncc2c(-c3ccc(F)cc3)nn(C[C@H]3CC[C@H](N)CC3)c2n1` [pyrazolopyrimidine, reference compound], the “number of protein kinases (domains) with >50% inhibition of labeling” value in the series with ∼170 kinases stood at 56.
The Ki is the dissociation constant of the complex between target and ligand, obtained from inhibition or displacement. The low end stands for tighter binding, the high end for weaker binding. A word on the IC50: it is the point on the concentration scale where inhibition reaches its midpoint. Usually CC50 stands for the concentration giving 50% cytotoxicity. Low values mean harm at low concentration, high ones better tolerance by the cells. What is called solubility is the concentration that dissolves in the medium under given conditions. What is called GI50 is the concentration at which growth is held to half of that of the control. The fraction remaining is the share of the starting amount still present when the sample was taken. The low end stands for more turnover, the high end for less turnover. As a reminder, the fraction unbound is the share of the substance not bound to proteins or other matrix. A word on the Papp: it is the rate of passage across a membrane or cell layer, normalised by area and donor concentration. A higher Papp goes with ready permeation. A word on the % Inhibition: it is how much of the control response was suppressed. A lower % Inhibition goes with a response near the control. For the compound `COc1cccc2c(NCc3ccccc3)nc(-n3c(N)nc4ccccc43)nc12` [ML240, 2-(2-Amino-1H-benzo[d]imidazol-1-yl)-N-benzyl-8-methoxyquinazolin-4-amine], the Ki at p97 ATPase was found to be 220 nM; on 5-HT5a, 2500 nM. For the same compound, the “mechanism of p97 inhibition with respect to ATP” value on p97 ATPase was “competitively”. In addition, the half-maximal inhibitory concentration (IC50) against p97 ATPase is ~100 nM and 100 nM; in series [8] it was 28000 ± 7000 nM. Besides, the CC50 in the series “Hepatic toxicity” turned out to be 8500 nM. In addition, the solubility was found to be 0.35 µg/mL (≈ 0.883 µM) in “Aqueous solubility” (pH 5, aqueous buffer); 0.33 µg/mL (≈ 0.832 µM) in the series “Aqueous solubility” (pH 6.2, aqueous buffer); 0.27 µg/mL (≈ 0.681 µM) in “Aqueous solubility” (pH 7.4, aqueous buffer). In addition, the “potency on normal vs immortalized and tumorigenic cell lines” value in series [1] was “slightly greater potency toward the immortalized and transformed cells”. Besides, the GI50 in the series with SW403 (setting [10]) was 500 ± 70 nM; in the series with SW403 (setting [11]), 500 ± 100 nM; with HCT15 (setting [12]), 760 ± 140 nM; in the series with HCT15 (setting [13]), 540 ± 190 nM. In addition, the fraction remaining at 3 h in “Plasma stability [2]” and in “Plasma stability [3]” was 100% each time. The fraction unbound at 1 μM in the series “Plasma protein binding [4]” was 0.0047; in “Plasma protein binding [7]” it was 0.0027. The fraction unbound at 10 μM was 0.0029 in “Plasma protein binding [4]” and 0.0037 in “Plasma protein binding [7]”. Also, the “Highest GP” value in the series with NCI 60 cancer cell lines (least inhibited individual cancer cell line) is −43.8 (HS 578T) %. Also, in the series on NCI 60 cancer cell lines, the “Mean GP” value is −84.5±15.5%. The “Lowest GP” value in the series with NCI 60 cancer cell lines (most inhibited individual cancer cell line) is listed as −100.0 (OVCAR-4) %. The Papp was 357 ×10⁻⁶ cm/s in the series “PAMPA” (PAMPA Pe, donor pH 5.0); 628 ×10⁻⁶ cm/s in the series “PAMPA” (PAMPA Pe, donor pH 6.2); less than 60.3 ×10⁻⁶ cm/s in the series “PAMPA” (pH 7.4, PAMPA Pe, donor pH 7.4). In addition, the share remaining at 1 h in [5] worked out at 54.3%; in series [9], 0.63%. Moreover, the “accumulation of ubiquitin conjugates” value in the series with ubiquitin conjugates was “caused accumulation of ubiquitin conjugates”. The “cleavage of PARP” value in [6] was “induced efficient cleavage”. Also, the “induction of caspase activity” value in the series on caspases 3 and 7 is recorded as “induced caspase activity”. Moreover, the “% Inhibition” value on JAK1 domain1 and at PIP5K3 was greater than 50% throughout. Also, the “time of LC3-II accumulation after addition of drug” value with LC3-II (HCT116, 10 μM, as early as) is recorded as 10 min. Further, in the series on LC3-II, the “accumulation of lipidated LC3-II” value is given as “induced accumulation”.
In turn, `c1ccc(CNc2nc(N3CCOc4ccccc43)nc3c2CCCC3)cc1` [ML241, 2-(2H-Benzo[b][1,4]oxazin-4(3H)-yl)-N-benzyl-5,6,7,8-tetrahydroquinazolin-4-amine] returned an inhibition constant Ki on p97 ATPase of 350 nM. Moreover, the “mechanism of p97 inhibition with respect to ATP” value at p97 ATPase is recorded as “competitively”. In addition, the IC50 against p97 ATPase is ~100 nM and 100 nM; in [8], 46000 ± 8000 nM. In addition, the CC50 in “Hepatic toxicity” is greater than 50000 nM. Also, the solubility came out at 28 µg/mL (≈ 75.2 µM) in the series “Aqueous solubility” (pH 5, aqueous buffer); 0.13 µg/mL (≈ 0.349 µM) in the series “Aqueous solubility” (pH 6.2, aqueous buffer); 0.2 µg/mL (≈ 0.537 µM) in “Aqueous solubility” (pH 7.4, aqueous buffer). In addition, the GI50 in the series with SW403 (setting [10]) was found to be 33000 ± 7000 nM; in the series with SW403 (setting [11]), 12000 ± 3000 nM; with HCT15 (setting [12]) it was 53000 ± 5000 nM; in the series on HCT15 (setting [13]) it was 13000 ± 4000 nM. Besides, the amount remaining at 3 h in the series “Plasma stability [2]” and in “Plasma stability [3]” was 100% throughout. Also, the free fraction (fraction unbound) at 1 μM in the series “Plasma protein binding [4]” is 0.0003; in the series “Plasma protein binding [7]” it was 0.0005. The fraction unbound at 10 μM is 0.0005 in the series “Plasma protein binding [4]” and 0.0009 in the series “Plasma protein binding [7]”. The “Mean GP” value in the series on NCI 60 cancer cell lines amounted to 92.8±22.8%. In addition, the “PAMPA Pe” value turned out to be 1164 ×10⁻⁶ cm/s in “PAMPA” (donor pH 5.0), 2504 ×10⁻⁶ cm/s in the series “PAMPA” (donor pH 6.2) and 2278 ×10⁻⁶ cm/s in the series “PAMPA” (donor pH 7.4). Further, the fraction remaining at 1 h was 19% in series [5] and 2.57% in series [9]. The “accumulation of ubiquitin conjugates” value in the series on ubiquitin conjugates is on record as “caused accumulation of ubiquitin conjugates”. For the same compound, the “accumulation of lipidated LC3-II” value in the series on LC3-II was “lack of effect”. In addition, the “inhibition of labeling across the panel” value in the series on ∼170 kinases is listed as “did not appreciably inhibit labeling”.
As to `CC(C)C[C@H](NC(=O)[C@H](Cc1ccccc1)NC(=O)c1cnccn1)B(O)O` [bortezomib, reference compound], the “potency on normal vs immortalized and tumorigenic cell lines” value in [1] is reported as “equal potency”.
As for `c1ccc(CNc2nc(NCc3ccccc3)c3ccccc3n2)cc1` [DBeQ, N^2,N^4-dibenzylquinazoline-2,4-diamine], the results for the IC50 (on p97 ATPase; in series [8]) were 1600 nM and 56000 ± 14000 nM, respectively. The “potency on normal vs immortalized and tumorigenic cell lines” value in series [1] was “slightly greater potency toward the immortalized and transformed cells”. In addition, the GI50 was found to be 2200 ± 600 nM in the series on SW403 (setting [10]), 1400 ± 500 nM in the series with SW403 (setting [11]), 3200 ± 1000 nM in the series with HCT15 (setting [12]) and 1800 ± 700 nM in the series with HCT15 (setting [13]). Also, the “accumulation of ubiquitin conjugates” value in the series on ubiquitin conjugates was “caused accumulation of ubiquitin conjugates”.

Source of the values: paper PMC3662613 (Chemmedchem, 2013).
